# Assay results published in ChEMBL document CHEMBL1201862, “PubChem BioAssay data set” (2004).
# Counter-ions that a name gives are not always drawn. Active and inactive are the calls of the source.
# Assays:
# Protein RecA = biological target: T1, Protein RecA (Mycobacterium tuberculosis, UniProt P9WHJ3); assay: Fluorescence Cell-Free Homogeneous Dose Retest to Identify Inhibitors of RecA-Intein Splicing Activity. [Related pubchem assays (depositor defined):AID2097, AID2223, AID489010, AID492950]; type: functional
# T1 sequence (P9WHJ3 whole entry): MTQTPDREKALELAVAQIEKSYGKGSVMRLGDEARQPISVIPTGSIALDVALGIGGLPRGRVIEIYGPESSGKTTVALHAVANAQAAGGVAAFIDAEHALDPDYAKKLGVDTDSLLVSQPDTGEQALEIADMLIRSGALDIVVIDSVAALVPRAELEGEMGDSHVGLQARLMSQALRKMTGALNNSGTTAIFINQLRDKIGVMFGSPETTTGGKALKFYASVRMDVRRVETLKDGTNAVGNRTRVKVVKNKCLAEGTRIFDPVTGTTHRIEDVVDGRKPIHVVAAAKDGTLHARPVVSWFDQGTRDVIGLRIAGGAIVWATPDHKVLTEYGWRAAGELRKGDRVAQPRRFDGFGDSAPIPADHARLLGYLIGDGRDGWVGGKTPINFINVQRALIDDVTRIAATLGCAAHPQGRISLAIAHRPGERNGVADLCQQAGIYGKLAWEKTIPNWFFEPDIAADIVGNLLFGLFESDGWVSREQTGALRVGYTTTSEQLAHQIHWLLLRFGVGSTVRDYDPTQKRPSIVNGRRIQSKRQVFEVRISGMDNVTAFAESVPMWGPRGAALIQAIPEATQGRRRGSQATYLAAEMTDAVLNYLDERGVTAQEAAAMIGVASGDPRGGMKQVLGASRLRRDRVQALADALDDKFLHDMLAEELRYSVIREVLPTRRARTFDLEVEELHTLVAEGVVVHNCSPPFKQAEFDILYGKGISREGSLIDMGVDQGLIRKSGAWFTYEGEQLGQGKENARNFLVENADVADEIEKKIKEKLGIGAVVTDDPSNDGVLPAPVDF
# [1] = Luminescence Cell-Based Dose Response HTS to Identify Activators of Luciferase Translation or Activity in H4 […] Cells. [Related pubchem assays: 1829 (Project Summary), 1814 (Primary HTS)]; type: functional
# [2] = Luminescence Cell-Based Dose Retest to Confirm Inhibitors of Cancer Stem Cells. [Related pubchem assays (depositor defined):AID2717, AID2721]; type: functional; details: Homo sapiens
# [3] = HepG2 cell cytotoxicity, dose response, cytotoxicity control, plate reader, cherry-pick, antagonist series (AID 743416); type: functional, cell-based
# H4 = assay: Luminescence Cell-Based Dose Response HTS to Identify Activators of 5'UTR Stem-Loop Driven Prion Protein mRNA Translation in H4 Neuroglioblastoma Cells. [Related pubchem assays: 1829 (Project Summary), 1814 (Primary HTS)]; type: functional; details: Homo sapiens
# [4] = HEK293 cell cytotoxicity, dose response, cytotoxicity control, plate reader, cherry-picked samples (AID 743446); type: functional, cell-based
# INS1 = assay: beta cell apoptosis inhibitors, cytokine rescue, dose response, luminescence, retest (AID 449756); type: functional, cell-based; details: Rattus norvegicus;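 note: cell death triggered by IL-1 beta plus TNF-alpha plus IFN-gamma mixture; protective hits raise ATP signal compared with cytokine alone wells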
# [5] = Luminescence Cell-Based Dose Confirmation HTS to Identify Activators of 5'UTR Stem-Loop Driven Alpha-Synuclein mRNA Translation in H4 Neuroglioblastoma Cells. [Related pubchem assays: 1829 (Project Summary), 1814 (Primary HTS)]; type: functional
# [6] = A549 cell cytotoxicity, dose response, cytotoxicity control, plate reader, cherry-pick, antagonist series (AID 743412); type: functional, cell-based
# Caspase-6 = Caspase-6 (Homo sapiens, UniProt P55212); assay: human caspase-6 inhibitors, dose response, biochemical, VEID-R110 fluorescence, cherry-pick (AID 720632)
# [7] = HEp-2 cell cytotoxicity, dose response, cytotoxicity control for RSV inhibitor project, HTS (AID 2410); type: functional; details: human respiratory syncytial virus
# Genome polyprotein = Genome polyprotein (dengue virus type 2, UniProt P29990); assay: Dengue-2 NS5 methyltransferase inhibitors, primary screen, biochemical, confirmation dose response (AID 588689); type: functional
# [8] = biological target: E3 ubiquitin-protein ligase Mdm2 (Homo sapiens, UniProt Q00987); assay: enhancers of MDM2-luciferase reporter signal, concentration-effect titration, project on inhibitors of MDM2 ubiquitin ligase, cellular assay, luminescent readout, 384-well plate format (AID 1394); type: functional;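 note: MDM2 E3 inhibitors raise luminescence so EC50 is for signal enhancement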
# [9] = inhibitors of Vif binding to APOBEC3G peptide, primary screen, biochemical, TR-FRET, GST-Vif 1-94, biotin-A3G peptide, dose response retest (AID 1117319); type: functional;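 note: TR-FRET signal of purified GST-Vif binding a biotinylated A3G peptide; inhibitors lower the FRET signal by blocking Vif and A3G binding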
# [10] = ADAM10 inhibitors, peptide cleavage, dose response, biochemical, QFRET (AID 743254);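 note: ADAM10 enzyme with the DM2 quenched FRET peptide as substrate; EDANS fluorescence gain as the protease cuts the substrate; inhibitor potency against ADAM10 proteolytic activity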
# [11] = biological target: T2, Heat shock factor protein 1 (Mus musculus, UniProt P38532); assay: HSF1 potentiators in luciferase reporter cells, confirmation, cell-based, NIH3T3, luminescence, dose retest (AID 435004); type: functional;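 note: stress induced by proteasome inhibitor MG132 added 30 min after compound; luciferase reporter driven by HSF1 response element in NIH3T3 cells; actives raise luminescence as potentiators of the MG132 stress response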
# T2 sequence (P38532 whole entry): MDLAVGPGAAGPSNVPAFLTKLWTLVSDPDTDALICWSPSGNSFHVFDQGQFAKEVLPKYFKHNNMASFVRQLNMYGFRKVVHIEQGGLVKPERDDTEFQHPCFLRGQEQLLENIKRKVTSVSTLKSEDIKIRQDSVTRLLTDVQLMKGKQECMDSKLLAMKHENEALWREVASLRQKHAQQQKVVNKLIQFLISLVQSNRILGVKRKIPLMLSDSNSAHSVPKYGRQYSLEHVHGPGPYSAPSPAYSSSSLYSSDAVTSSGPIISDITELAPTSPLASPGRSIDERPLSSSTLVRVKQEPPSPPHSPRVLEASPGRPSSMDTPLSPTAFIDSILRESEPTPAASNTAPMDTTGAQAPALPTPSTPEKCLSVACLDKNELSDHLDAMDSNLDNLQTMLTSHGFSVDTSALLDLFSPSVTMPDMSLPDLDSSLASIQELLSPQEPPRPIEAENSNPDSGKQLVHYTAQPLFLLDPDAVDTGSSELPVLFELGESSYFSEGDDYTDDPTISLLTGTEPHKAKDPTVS
# [12] = growth suppression of beta-catenin-knockout colon cells, dose response, cell-based, HCT116, human colon tumor (AID 1045); type: functional;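 note: HCT116 colon tumor cells with beta catenin knocked out; cells exposed to compound for 60 hours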
# Vero [13] = assay: cells; type: functional; details: Chlorocebus sabaeus
# [14] = biological target: Disintegrin and metalloproteinase domain-containing protein 17 (Homo sapiens, UniProt P78536); assay: ADAM17 protease inhibitors, dose response, counter-screen for ADAM10 exosite inhibitor project, biochemical, quenched FRET substrate (AID 743253)
# [15] = growth suppression of PTEN-null colon cells, dose response, cell-based, HCT116 PTEN knockout (AID 1047); type: functional;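 note: HCT116 colon tumor cells with PTEN knocked out; cells exposed to compound for 60 hours before readout; potency for loss of cell viability measured by luminescence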
# Vero [16] = assay: cells; type: functional, cell-based; details: Chlorocebus sabaeus
# [17] = biological target: Mitogen-activated protein kinase 10 (Homo sapiens, UniProt P53779); assay: Dose response biochemical screening assay for inhibitors of c-Jun N-Terminal Kinase 3 (JNK3). [Related pubchem assays: 746 ]
# [18] = inhibitors of intracellular T. cruzi replication, confirmation, NIH3T3 host cells, beta-gal luminescence (AID 2044); type: functional, cell-based;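 note: intracellular parasites grown in NIH/3T3 mouse fibroblasts as host cells; luminescent beta-galactosidase reporter signal from transgenic T. cruzi replicating inside host cells; inhibitors lower the luminescence signal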
# [19] = cytotoxicity toward NIH3T3 fibroblasts, dose response, counter-screen, cell-based, ATP luminescence, mouse fibroblasts (AID 2010); type: functional;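 note: cells exposed to compound for about 90 hours before reading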
# Paired box protein Pax-8 = Paired box protein Pax-8 (Homo sapiens, UniProt Q06710); assay: inhibitors of PAX8-driven TPO luciferase reporter, dose response, RMG-I cells, cherry-pick (AID 687027); type: functional, cell-based;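 note: luciferase reporter driven by Pax8 target thyroperoxidase promoter measured by SteadyGlo luminescence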
# [20] = A2780 ovarian cancer cell cytotoxicity, dose response, cytotoxicity control, plate reader, dry powder samples (AID 743046); type: functional, cell-based
# [21] = inhibitors of non-replicating M. tuberculosis, dose response, luciferase, dry powder (AID 651619); type: functional; details: Mycobacterium tuberculosis
# [22] = inhibitors of non-replicating M. tuberculosis, dose response, luciferase, dry powder (AID 651620); type: functional; details: Mycobacterium tuberculosis
# [23] = CTGF mRNA reduction under YAP1 overexpression, dose response, mechanism study for YAP1 pathway inhibitor project, DLD1 cells, RT-qPCR, cherry-pick (AID 1053127); type: functional, cell-based; details: DLD-1
# [24] = A375 melanoma cell cytotoxicity, dose response, counter-screen for MITF inhibitor project, CellTiter-Glo luminescence, dry powder, set 2 (AID 624489); type: functional, cell-based; details: A-375;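 note: actives are compounds lowering A375 viability meaning general cytotoxicity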
# [25] = A375 melanoma cell viability loss, dose response, counter-screen for MITF inhibitor project, CellTiter-Glo luminescence, dry powder, set 4 (AID 624364); type: functional, cell-based; details: A-375;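 note: A375 melanoma cells are MITF independent so this is a counter screen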
# [26] = cytotoxicity toward HCT116 cells – cell-based, CellTiter-Glo luminescence, IC50, dose response (AID 1117332); type: functional; details: HCT-116
# [27] = SNU-C1 cell viability reduction, dose response, CellTiter-Glo luminescence (AID 1117323); type: functional, cell-based
# [28] = cytotoxicity toward Colo320 cells – cell-based, CellTiter-Glo luminescence, IC50, dose response (AID 1117334); type: functional; details: COLO 320
# [29] = RKO cell viability reduction, dose response, CellTiter-Glo luminescence (AID 1117322); type: functional
# [30] = CellTiter-Glo luminescent dose response of DLD-1 viability loss (AID 1117352); type: functional
# [31] = Concentration-dependent survival of SW480 colon cancer line, luminescence detection with CellTiter-Glo, half-maximal inhibitory concentration (AID 1117338); type: functional
# [32] = cytotoxicity toward HT-29 cells – cell-based, CellTiter-Glo luminescence, IC50, dose response (AID 1117330); type: functional
# [33] = HCT116 cell viability decrease, GSK3B pretreatment – CellTiter-Glo, IC50, dose response (AID 1117339); type: functional; details: HCT-116
# [34] = HeLa 2N DNA content increase, dose response, cell-based, IC50 (AID 1117349); type: functional
# [35] = HeLa 4N DNA content increase, dose response, cell-based, IC50 (AID 1117351); type: functional
# Mitogen-activated protein kinase 10, sequence (P53779 whole entry): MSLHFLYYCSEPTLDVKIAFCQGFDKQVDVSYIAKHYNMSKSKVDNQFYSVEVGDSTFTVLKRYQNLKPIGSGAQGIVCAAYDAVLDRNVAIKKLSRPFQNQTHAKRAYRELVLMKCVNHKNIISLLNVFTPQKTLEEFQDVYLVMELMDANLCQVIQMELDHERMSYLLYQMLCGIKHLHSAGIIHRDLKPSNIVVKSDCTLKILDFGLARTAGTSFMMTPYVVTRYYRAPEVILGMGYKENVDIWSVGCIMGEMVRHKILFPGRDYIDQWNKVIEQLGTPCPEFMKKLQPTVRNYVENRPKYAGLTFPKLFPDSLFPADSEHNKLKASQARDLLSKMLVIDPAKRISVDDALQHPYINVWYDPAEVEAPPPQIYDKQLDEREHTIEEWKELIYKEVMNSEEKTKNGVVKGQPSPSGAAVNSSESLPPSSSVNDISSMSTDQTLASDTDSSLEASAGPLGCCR
# Caspase-6, sequence (P55212 24-179 limits assumed): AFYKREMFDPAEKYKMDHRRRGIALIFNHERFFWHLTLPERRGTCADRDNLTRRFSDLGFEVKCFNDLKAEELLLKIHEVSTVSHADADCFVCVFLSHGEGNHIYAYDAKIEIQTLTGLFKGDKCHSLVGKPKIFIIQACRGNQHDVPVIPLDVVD
# Caspase-6, sequence (P55212 194-293 limits assumed): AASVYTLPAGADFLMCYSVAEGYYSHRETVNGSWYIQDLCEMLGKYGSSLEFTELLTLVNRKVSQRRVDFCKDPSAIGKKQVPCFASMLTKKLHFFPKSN
# Paired box protein Pax-8, sequence (Q06710 whole entry): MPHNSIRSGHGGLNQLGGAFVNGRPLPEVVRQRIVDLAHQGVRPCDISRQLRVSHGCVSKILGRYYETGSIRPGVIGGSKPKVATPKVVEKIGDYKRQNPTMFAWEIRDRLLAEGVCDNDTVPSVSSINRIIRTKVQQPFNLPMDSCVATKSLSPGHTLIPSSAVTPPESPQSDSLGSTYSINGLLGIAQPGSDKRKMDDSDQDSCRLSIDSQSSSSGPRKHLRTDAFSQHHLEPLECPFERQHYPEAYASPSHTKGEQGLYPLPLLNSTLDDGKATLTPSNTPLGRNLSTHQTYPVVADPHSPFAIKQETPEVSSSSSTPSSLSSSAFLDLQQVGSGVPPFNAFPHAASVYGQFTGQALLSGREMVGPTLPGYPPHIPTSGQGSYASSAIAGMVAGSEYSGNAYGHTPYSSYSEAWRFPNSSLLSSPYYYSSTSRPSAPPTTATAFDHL
# Disintegrin and metalloproteinase domain-containing protein 17, sequence (P78536 whole entry, the tested form may be a part): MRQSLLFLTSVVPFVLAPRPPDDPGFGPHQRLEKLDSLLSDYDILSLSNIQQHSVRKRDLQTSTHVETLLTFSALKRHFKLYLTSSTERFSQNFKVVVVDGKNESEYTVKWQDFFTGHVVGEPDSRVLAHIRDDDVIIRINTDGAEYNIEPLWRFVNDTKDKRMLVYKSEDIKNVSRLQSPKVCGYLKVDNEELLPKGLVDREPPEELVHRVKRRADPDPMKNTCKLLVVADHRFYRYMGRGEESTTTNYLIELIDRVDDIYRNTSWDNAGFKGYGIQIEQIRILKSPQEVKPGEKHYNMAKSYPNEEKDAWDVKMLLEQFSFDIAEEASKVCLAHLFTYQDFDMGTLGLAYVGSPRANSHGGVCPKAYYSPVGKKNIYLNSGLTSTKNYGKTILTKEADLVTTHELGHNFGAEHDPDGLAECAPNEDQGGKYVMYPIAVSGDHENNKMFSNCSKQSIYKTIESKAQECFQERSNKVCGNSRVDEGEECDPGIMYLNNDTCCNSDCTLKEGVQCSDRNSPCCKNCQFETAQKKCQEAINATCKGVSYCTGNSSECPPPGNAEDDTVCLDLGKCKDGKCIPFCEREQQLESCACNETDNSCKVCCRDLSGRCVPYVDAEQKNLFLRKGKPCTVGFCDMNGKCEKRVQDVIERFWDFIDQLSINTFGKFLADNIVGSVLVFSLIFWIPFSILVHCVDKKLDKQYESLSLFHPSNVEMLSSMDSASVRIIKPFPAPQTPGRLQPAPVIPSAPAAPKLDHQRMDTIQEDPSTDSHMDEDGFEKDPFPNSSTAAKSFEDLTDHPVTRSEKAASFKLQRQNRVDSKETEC
# Genome polyprotein, sequence (P29990 2492-3391 limits assumed): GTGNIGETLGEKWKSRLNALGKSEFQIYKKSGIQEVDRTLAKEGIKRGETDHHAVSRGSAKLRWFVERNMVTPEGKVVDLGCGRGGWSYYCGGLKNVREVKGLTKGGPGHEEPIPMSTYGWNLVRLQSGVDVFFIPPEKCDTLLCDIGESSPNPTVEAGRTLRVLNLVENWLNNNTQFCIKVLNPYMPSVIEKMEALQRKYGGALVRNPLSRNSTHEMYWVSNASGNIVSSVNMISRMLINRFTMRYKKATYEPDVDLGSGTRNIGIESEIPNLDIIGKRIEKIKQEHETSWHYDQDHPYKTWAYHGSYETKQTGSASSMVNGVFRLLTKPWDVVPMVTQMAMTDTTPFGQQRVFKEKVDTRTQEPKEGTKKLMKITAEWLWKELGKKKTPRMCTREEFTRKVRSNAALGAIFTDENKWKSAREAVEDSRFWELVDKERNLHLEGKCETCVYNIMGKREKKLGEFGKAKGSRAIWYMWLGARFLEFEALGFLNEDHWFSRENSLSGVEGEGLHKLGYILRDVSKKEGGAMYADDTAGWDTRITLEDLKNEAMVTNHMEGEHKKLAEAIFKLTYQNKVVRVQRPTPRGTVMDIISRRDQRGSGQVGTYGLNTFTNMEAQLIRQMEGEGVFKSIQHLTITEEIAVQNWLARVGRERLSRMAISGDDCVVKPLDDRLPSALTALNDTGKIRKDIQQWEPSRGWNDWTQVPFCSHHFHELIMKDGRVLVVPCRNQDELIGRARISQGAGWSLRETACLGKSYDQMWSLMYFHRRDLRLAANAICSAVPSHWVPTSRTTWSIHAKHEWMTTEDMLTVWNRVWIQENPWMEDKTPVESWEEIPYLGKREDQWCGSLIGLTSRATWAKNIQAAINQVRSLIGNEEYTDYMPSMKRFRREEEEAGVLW
# E3 ubiquitin-protein ligase Mdm2, sequence (Q00987 whole entry): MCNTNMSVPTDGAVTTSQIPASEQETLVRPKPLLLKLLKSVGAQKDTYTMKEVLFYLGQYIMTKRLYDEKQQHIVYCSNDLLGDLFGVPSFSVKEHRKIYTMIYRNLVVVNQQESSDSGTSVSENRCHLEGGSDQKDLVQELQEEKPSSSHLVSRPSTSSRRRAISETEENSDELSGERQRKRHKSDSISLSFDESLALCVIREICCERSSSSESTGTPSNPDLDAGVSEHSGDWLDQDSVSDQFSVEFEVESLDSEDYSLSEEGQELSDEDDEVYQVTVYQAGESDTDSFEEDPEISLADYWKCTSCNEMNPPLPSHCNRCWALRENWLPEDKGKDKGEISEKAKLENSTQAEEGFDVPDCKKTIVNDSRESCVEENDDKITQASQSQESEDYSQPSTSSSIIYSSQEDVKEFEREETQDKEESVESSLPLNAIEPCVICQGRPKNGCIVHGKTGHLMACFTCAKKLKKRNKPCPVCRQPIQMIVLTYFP
compound,measurement,setting,value
COc1cc(NC2CCCCC2O)c2nc(-c3ccc(Cl)cc3)ccc2c1 (configuration not stated),EC50,Protein RecA,0.0728 µM (active)
same,EC50,[1],12.9 µM (active)
same,AC50,[2],2.07 µM (active)
same,AC50,[3],26.3 µM (active)
same,EC50,H4,> 60 µM (not active)
same,AC50,[4],> 52 µM (inactive)
same,AC50,INS1,3.57 µM (active)
same,EC50,[5],9.15 µM (active)
same,AC50,[6],20.3 µM (active)
CCCCC(NC(=O)Cc1c(C)c2cc3c(-c4ccccc4)coc3c(C)c2oc1=O)C(=O)O (configuration not stated),AC50,Caspase-6,22 µM (active)
same,IC50,cells,45.9 µM (active)
same,CC50,[7],> 50 µM (active)
same,IC50,Genome polyprotein,51 µM (active)
COc1cc2c(cc1OC)CN(C(=O)c1ccco1)CC2,EC50,[8],11.1 µM (not active)
O=C(c1cc2ccccc2oc1=O)N1CCN(c2ccc(N3CCOCC3)nn2)CC1,IC50,[9],> 100 µM (active)
CCOC(=O)/C(=C\c1ccccc1)NC(=O)c1ccccc1,IC50,[9],> 100 µM (active)
Cc1ccc(N(CC(=O)NCCc2ccc(F)cc2)S(=O)(=O)c2ccc(Cl)c([N+](=O)[O-])c2)c(C)c1,IC50,[10],> 69.5 µM (inactive)
same,EC50,[11],17.1 µM (active)
same,EC50,[12],8.87 µM (active)
same,CC50,Vero [13],18.4 µM (active)
same,IC50,[14],> 69.5 µM (inactive)
same,EC50,[15],14 µM (active)
same,IC50,Vero [16],> 25 µM (active)
CC(=O)c1c(C)[nH]c(C(=O)OCn2nnc3ccccc3c2=O)c1C,IC50,[17],34.2 µM (not active)
O=C(Nc1nccs1)c1ccc(Br)o1,IC50,[17],> 31 µM (not active)
O=C(N/N=C/c1ccc([N+](=O)[O-])o1)C1CC1,AC50,Caspase-6,10 µM (active)
same,EC50,[18],0.36 µM (active)
same,EC50,[19],> 60 µM (not active)
CC(C)CC#Cc1ccc([C@@H]2[C@@H](CO)N3CCCCN(S(=O)(=O)c4ccc(F)cc4)C[C@H]23)cc1,AC50,Paired box protein Pax-8,12.4 µM (active)
same,AC50,[20],52.3 µM (active)
Brc1cccc(-c2nnc(SCc3ccccn3)o2)c1,IC90,[21],4 µM (active)
same,IC90,[22],4 µM (active)
O=C(Cc1ccncc1)N1CCCCN2[C@H](CO)[C@@H](c3ccc(C#Cc4ccccc4F)cc3)[C@H]2C1,AC50,[23],15.1 µM (active)
CC(C)(C)[S@@+]([O-])N1Cc2cc(C(=O)NCC(F)(F)F)nc(-c3cccc(-c4cccc(F)c4)c3)c2[C@H]1CCO,AC50,[23],> 26 µM (inactive)
COc1ccc(C2=C(N)C(=O)c3ccccc3C2=O)cc1,AC50,[24],> 70 µM (inactive)
same,AC50,[25],> 70 µM (inactive)
O=c1sc2ccccc2c(O)c1C1CC(c2ccc(-c3ccc(Br)cc3)cc2)Cc2ccccc21 (configuration not stated),IC50,[26],0.485 µM (active)
same,IC50,[27],0.252 µM (active)
same,IC50,[28],0.735 µM (active)
same,IC50,[29],0.538 µM (active)
same,IC50,[30],0.239 µM (active)
same,IC50,[31],0.187 µM (active)
same,IC50,[32],0.436 µM (active)
COc1ccc(C2=C(NC(C)=O)C(=O)c3ccccc3C2=O)cc1,AC50,[24],8.33 µM (active)
same,AC50,[25],13.4 µM (active)
COc1cc(NC(C)CCCN)c2ncccc2c1 (configuration not stated) [PRIMAQUINE],IC50,[33],> 20 µM (inactive)
same,IC50,[26],1.88 µM (active)
same,IC50,[27],> 20 µM (inactive)
same,IC50,[34],> 10 µM (inactive)
same,IC50,[35],> 10 µM (inactive)
same,IC50,[28],> 20 µM (inactive)
same,IC50,[29],> 20 µM (inactive)
same,IC50,[30],> 20 µM (inactive)
same,IC50,[31],> 20 µM (inactive)
O=C(CCCN1CCC(O)(c2cccc(C(F)(F)F)c2)CC1)c1ccc(F)cc1 [TRIFLUPERIDOL HYDROCHLORIDE],IC50,[33],> 20 µM (inactive)
same,IC50,[26],> 20 µM (inactive)
same,IC50,[27],> 20 µM (inactive)
same,IC50,[28],> 20 µM (inactive)
same,IC50,[29],> 20 µM (inactive)
same,IC50,[30],> 20 µM (inactive)
same,IC50,[31],> 20 µM (inactive)
same,IC50,[32],> 20 µM (inactive)
